The values that follow are results of earlier work, collected in the CATMoS acute toxicity set (Mansouri et al. 2021).

Values joined by “and” are separate entries in the source; they are usually repeats but may differ in a detail not shown here. Identical values can stand only once.

The data set in a line: rat acute oral toxicity. The conditions noted are these: in vivo.
Broadly, the LD50 is the dose at which mortality reaches 50%. With `COc1cc(-n2ccnc2)ncn1`, the LD50 was 400 mg/kg.

In the case of `CCc1c2c(nc3ccc(OC(=O)N4CCC(N5CCCCC5)CC4)cc13)-c1cc3c(c(=O)n1C2)COC(=O)C3(O)CC` (stereo not drawn), the LD50 is 867 mg/kg.

In the case of `C=CCOCC(CC)(CO)COCC=C`, the LD50 is 6500 mg/kg.

As for `OCc1c(F)c(F)c(F)c(F)c1F`, the LD50 was 900 mg/kg.

Turning to `CC(Cl)(Cl)C(=O)O`, the LD50 is 3860 mg/kg.

For `CN1CCN=C(c2ccccc2)c2cc(Cl)ccc21`, the LD50 was 900 mg/kg.

For the molecule `CCNP(=S)(OC)Oc1cc(Cl)c(Cl)cc1Cl` (stereo not drawn), the LD50 was 450 mg/kg.

Turning to `c1ccc(C(N2CCOCC2)N2CCOCC2)cc1`, the LD50 is 5060 mg/kg.

With `COP(=O)(OC)OC(=CCl)c1cc(Cl)ccc1Cl`, the LD50 is 3790 mg/kg.

Consider `C#CCN(C)CCCOc1ccc(Cl)cc1Cl`, for which the LD50 is 210 mg/kg.

As to `CCOC(=O)N(C)SN(C)C(=O)O/N=C(\C)SC`, the LD50 is 226 mg/kg.

Regarding `CCCC(=O)OC1CCC(N2CCCCC2)CC1` (stereo not drawn), the LD50 was 1910 mg/kg.

With `Nc1nnc(C=Cc2ccc([N+](=O)[O-])o2)s1`, the LD50 was 1880 mg/kg.

Turning to `O=C(OCCOCCN1CCCCC1)N1c2ccccc2Sc2cccnc21`, the 50% lethal dose (LD50) is 530 mg/kg.

`CC1=C(C(=O)OCCN2CCN(C(c3ccccc3)c3ccccc3)CC2)C(c2cccc([N+](=O)[O-])c2)C(P2(=O)OCC(C)(C)CO2)=C(C)N1` (stereo not drawn): the LD50 was 194 mg/kg.

Consider `FC(F)(F)c1nc2c(Br)c(Br)c(Cl)c(Br)c2[nH]1`, for which the LD50 is 8.32 mg/kg.

As for `CCN(CC)CCOC(=O)CC(O)(c1ccccc1)c1ccccc1`, the LD50 was 2310 mg/kg.

Consider `C1CN(CCOCCN2CCOCC2)CCO1`, for which the LD50 is 2020 mg/kg.

On to `C=C1C[C@]23C[C@@]1(O)CC[C@H]2[C@@]12C=C[C@H](O)[C@@](C)(C(=O)O1)[C@H]2[C@@H]3C(=O)O`, for which the LD50 was 6300 mg/kg.

Turning to `CC(=O)OCC(COC(C)=O)OC(C)=O`, the LD50 is 3000 mg/kg.

Consider `Cc1ccc(C#N)cc1`, for which the LD50 is 3800 mg/kg.

For the molecule `NC(=S)SSC(N)=S`, the LD50 was 1950 mg/kg.

As for `CCOC(=O)C(C)N(C(=O)c1ccccc1)c1ccc(Cl)c(Cl)c1` (stereo not drawn), the LD50 is 1550 mg/kg.

In the case of `CCOP(=O)(OCC)Oc1cc(C)oc(=O)c1`, the LD50 is 3.34 mg/kg.

As to `Cc1cc(O)ccc1S(C)(=O)=O`, the LD50 was 7000 mg/kg.

`CN(C)/N=N/c1ccc(C(N)=O)cc1`: the LD50 is 54 mg/kg.

In the case of `COc1ccc([N+](=O)[O-])cc1`, the LD50 was 2300 mg/kg.

As to `OC1(c2ccccc2)c2ccccc2C2=NCCN21` (stereo not drawn), the LD50 was 300 mg/kg.

With `O=C(O)c1cc([N+](=O)[O-])cc([N+](=O)[O-])c1O`, the LD50 was 860 mg/kg.

For the molecule `Clc1cc(Cl)c(Cl)c(-c2cc(Cl)c(-c3cc(Cl)c(Cl)c(Cl)c3)c(Cl)c2Cl)c1`, the LD50 was 19200 mg/kg.

In the case of `CC1=CC(=O)OC1=O`, the LD50 was 2600 mg/kg.

In the case of `C(=N\C(/N=C/c1ccco1)c1ccco1)/c1ccco1`, the LD50 was 400 mg/kg.

For `O=[N+]([O-])c1cc([N+](=O)[O-])c(Nc2c(Br)cc(Br)cc2Br)c(C(F)(F)F)c1`, the LD50 was 4.43 mg/kg.

`C1=CCC(C2OCC3(CC=CCC3)CO2)CC1` (stereo not drawn): the LD50 was 5190 mg/kg.

As for `ClC1=C(Cl)[C@]2(Cl)[C@H]3[C@H]([C@H]4C=C[C@H]3C4)[C@@]1(Cl)C2(Cl)Cl`, the LD50 is 7 mg/kg.

As for `C=CCOC=O`, the 50% lethal dose (LD50) was 124 mg/kg.

Regarding `O=[N+]([O-])c1c(Cl)c(Cl)c(Cl)c2nc(C(F)(F)F)[nH]c12`, the LD50 was 19.3 mg/kg.

For `NNC(=S)NN`, the LD50 is 21.6 mg/kg.

For `Nc1cccc(Cl)c1`, the LD50 is 256 mg/kg.

In the case of `c1cc2c(cc1C1CO1)O2` (stereo not drawn), the LD50 was 2830 mg/kg.

`COC1=C2C[C@@H](C)C[C@H](OC)[C@H](O)[C@@H](C)C=C(C)[C@H](OC(N)=O)[C@@H](OC)C=CC=C(C)C(=O)NC(=CC1=O)C2=O`: the LD50 was 2500 mg/kg.

Regarding `O=[N+]([O-])c1c(Cl)c([N+](=O)[O-])c2[nH]c(C(F)(F)F)nc2c1Cl`, the LD50 was 117 mg/kg.

Regarding `CCCCCCCCOC(=O)C1=C(C)NC(C)=C(C(=O)NC2CC2)C1c1ccccc1[N+](=O)[O-]` (stereo not drawn), the LD50 was 50 mg/kg.

As to `Cc1nc(C)c(Cl)c(O)c1Cl`, the LD50 was 18000 mg/kg.

With `CC(=O)C1(O)Cc2c(O)c3c(c(O)c2C(OC2CC(N)C(O)C(C)O2)C1)C(=O)c1c(O)cccc1C3=O` (stereo not drawn), the LD50 was 23 mg/kg.

With `CC(=O)N(C)N=O`, the LD50 was 20 mg/kg.

On to `CCC[N+](=O)[O-]`, for which the LD50 is 455 mg/kg.

As to `Cc1cncc(C)n1`, the LD50 was 880 mg/kg.

For the molecule `COCCOC(=O)C1=C(C)NC(C)=C(C(=O)OC(C)C)C1c1cccc([N+](=O)[O-])c1` (stereo not drawn), the median lethal dose (LD50) is 2740 mg/kg.

With `CS(=O)(=O)Oc1ccc(Cl)cc1Cl`, the LD50 was 2790 mg/kg.

For `CCCCCCCCCCCCN=C([O-])C[N+](C)(C)Cc1ccccc1`, the LD50 is 100 mg/kg.

On to `CCC(=O)OCCc1ccccc1`, for which the LD50 is 4000 mg/kg.

Regarding `CC(=O)C(C)(C)C`, the LD50 was 610 mg/kg.

As for `ClC(Cl)=C1C(Cl)(Cl)C(Cl)=C(Cl)C1(Cl)Cl`, the LD50 is 3700 mg/kg.

For the molecule `Clc1nc(Cl)nc(Nc2ccccc2Cl)n1`, the LD50 was 2700 mg/kg.

Regarding `NCCCCCCC(=O)O`, the median lethal dose (LD50) is 9000 mg/kg.

As to `CC(Oc1ccc(Oc2nc3ccc(Cl)cc3o2)cc1)C(=O)O` (stereo not drawn), the LD50 was 2360 mg/kg.

For `CCCCc1c(OC(=O)c2cccs2)n(-c2ccccc2)n(-c2ccccc2)c1=O`, the LD50 is 1180 mg/kg.

Regarding `COC1(C)CC(c2ccccc2)c2c(c3ccccc3oc2=O)O1` (stereo not drawn), the 50% lethal dose (LD50) is 4000 mg/kg.

As for `CC(C)c1ccc(C#N)cc1`, the LD50 is 3900 mg/kg.

For `N/C(=N\c1c([N+](=O)[O-])cnc2ccccc12)N1CCOCC1`, the LD50 is 4000 mg/kg.

On to `CCN(CC)c1ccc(-c2nc(=O)n(C)nc2-c2ccc(N(CC)CC)cc2)cc1`, for which the LD50 is 650 mg/kg.

Regarding `OCCCO`, the LD50 is 15000 mg/kg.

Regarding `COC(=O)C1=C(C)NC(C)=C(C(=O)OCC(C)=O)C1c1ccccc1[N+](=O)[O-]` (stereo not drawn), the LD50 was 1460 mg/kg.

Regarding `O=CC(Br)=Cc1ccccc1`, the LD50 is 1450 mg/kg.

`CC(=O)OC1CCCCC1`: the LD50 was 6730 mg/kg.

Turning to `Cc1nccnc1N1CCCCC1`, the LD50 is 730 mg/kg.

`c1ccc2c(c1)ncc1ncsc12`: the median lethal dose (LD50) was 350 mg/kg and 290 mg/kg.

In the case of `CCCCN(N=O)c1ccc(N(CCCC)N=O)cc1`, the LD50 was 2600 mg/kg.

For `Cc1ccc(SN2C(=O)c3ccccc3C2=O)cc1`, the LD50 was 5060 mg/kg.

With `OC1OCC2C1C1(Cl)C(Cl)=C(Cl)C2(Cl)C1(Cl)Cl` (stereo not drawn), the LD50 was 1750 mg/kg.

As to `COc1c2ccoc2cc2oc(C)cc(=O)c12`, the LD50 is 832 mg/kg.

For `CN(C)C(CSC(N)=O)CSC(N)=O`, the LD50 was 250 mg/kg and 225 mg/kg.

Regarding `ClC1=C(Cl)C2(Cl)C(Cl)=C(Cl)C3C1C(Cl)CC32` (stereo not drawn), the LD50 was 10200 mg/kg.

For `CC(=O)OCCC(C)CC(C)(C)C` (stereo not drawn), the LD50 is 4250 mg/kg.

As for `O=C1CCC(c2ccc(-n3ccnc3)cc2)=NN1`, the LD50 was 125 mg/kg.

On to `CCN(CC)C(=O)N[C@H]1C[C@@H]2c3cccc4[nH]cc(c34)C[C@H]2N(C)C1`, for which the LD50 was 100 mg/kg.

Consider `O=C1c2ccccc2-c2c([N+](=O)[O-])cc3c4cc([N+](=O)[O-])c5c6c(ccc(c7ccc1c2c73)c64)C(=O)c1ccccc1-5`, for which the LD50 was 10000 mg/kg.

Take `CC1(C)[C@H](C(=O)O[C@H](C#N)c2cccc(Oc3ccccc3)c2)[C@@H]1/C=C(\Cl)C(F)(F)F` (single isomer, unassigned): the LD50 is 56 mg/kg.

Regarding `COP(=S)(OC)SCC(N)=O`, the LD50 was 925 mg/kg.

As for `Cc1cccc(C)c1NC(=O)c1cc(S(N)(=O)=O)c(Cl)cc1O`, the LD50 is 1640 mg/kg.

In the case of `CCCCCCCCCCCCCCCC[n+]1ccccc1`, the LD50 was 200 mg/kg and 475 mg/kg.

With `CC(=O)SCCCCCCSC(C)=O`, the LD50 is 504 mg/kg.

Regarding `CN(C)c1ccc(C=Cc2ccccc2)cc1`, the LD50 was 50 mg/kg.

Consider `CCC(CC)C(=O)O`, for which the LD50 was 2200 mg/kg.

As for `O=C1OC2(c3ccc(O)cc3Oc3cc(O)ccc32)c2ccccc21`, the LD50 was 6720 mg/kg.

On to `CCCCOC(=O)CCCCC(=O)OCCCC`, for which the LD50 is 12900 mg/kg.

Turning to `Clc1ccc([Si]23OCCN(CCO2)CCO3)cc1`, the LD50 is 520 mg/kg.

With `CCOP(=S)(CCl)Sc1ccc(C)cc1` (stereo not drawn), the LD50 is 336 mg/kg.

On to `CC(c1ccccc1)N(C)N=O` (stereo not drawn), for which the LD50 was 600 mg/kg.

On to `CC(Cl)(Cl)[N+](=O)[O-]`, for which the LD50 was 410 mg/kg.

Turning to `CC(=Cc1ccccc1)CC(=O)N(CCO)CCO`, the LD50 was 1500 mg/kg.

`CC(C)(CCl)c1cc(Cl)nnc1Cl`: the LD50 was 1000 mg/kg.

Regarding `Cc1cc(Sc2cc(C)c(O)c(C(C)(C)C)c2)cc(C(C)(C)C)c1O`, the LD50 is 6340 mg/kg.

`O=C(O)CCc1nc(-c2ccccc2)c(-c2ccccc2)o1`: the LD50 is 4470 mg/kg.

`C#CCN(C)c1ccccc1OC(=O)NC`: the LD50 was 60 mg/kg.

In the case of `CCCCCCC#CC(=O)OC`, the LD50 is 2220 mg/kg.

Take `ClC1=C(Cl)C2(Cl)C3C4OC(C5OC54)C3C1(Cl)C2(Cl)Cl` (stereo not drawn): the LD50 is 142 mg/kg.

`N#CC(F)(F)C(F)(F)C(F)(F)C#N`: the LD50 is 2600 mg/kg.

For the molecule `CCCCOCC(C)OCC(C)OCC(C)O` (stereo not drawn), the LD50 is 1840 mg/kg.

For the molecule `C[C@H](N)[C@H](O)c1ccccc1`, the LD50 is 1540 mg/kg.

In the case of `COP(=S)(OC)SCn1ncccc1=O`, the LD50 is 3.5 mg/kg.

Consider `FC(F)(F)C(F)(Br)Br`, for which the LD50 is 54600 mg/kg.

Turning to `CCCCCCCCOC(CBr)c1ccc(C(C)(C)C)cc1` (stereo not drawn), the LD50 was 250 mg/kg.

Take `CC(C)=CCCC(C)CC(=O)O` (stereo not drawn): the LD50 is 2610 mg/kg.

For `CCOP(=S)(Oc1cccc2cccnc12)c1ccccc1` (stereo not drawn), the LD50 was 150 mg/kg.

On to `CCCC(CCC)C(=O)O`, for which the LD50 is 670 mg/kg.

As for `O=C1c2ccccc2C(=O)C1c1c(Cl)cccc1Cl`, the LD50 is 470 mg/kg.

Regarding `C#CC(C)OC(=O)Nc1cccc(Cl)c1` (stereo not drawn), the LD50 is 2380 mg/kg.

On to `Cc1ccc(C)nc1`, for which the LD50 was 800 mg/kg.

Take `N#CCNCC#N`: the LD50 was 710 mg/kg.

As to `Cc1cccc(C(=O)c2ccccc2)c1C`, the LD50 is 4920 mg/kg.

With `Cc1c(Cl)c(=O)oc2cc(OP(=O)(OCCCCl)OCCCCl)ccc12`, the LD50 is 211 mg/kg.

As to `Cc1cc(C)[nH]n1`, the LD50 is 1720 mg/kg.

Take `Clc1ccc(OCC2=NCCN2)cc1Cl`: the LD50 is 100 mg/kg.

In the case of `CCSC(SCC)c1ccccc1OC(=O)NC`, the LD50 was 500 mg/kg.

For the molecule `CNC(=O)Nc1ccccc1`, the LD50 is 3440 mg/kg.

In the case of `OC[C@@H](O)[C@@H](O[C@@H]1O[C@H](CO)[C@H](O)[C@H](O)[C@H]1O)[C@H](O)[C@@H](O)CO`, the 50% lethal dose (LD50) is 30000 mg/kg and 27500 mg/kg.
